Entries after “also recorded” stand apart in the source; their conditions may differ.

Test [1] concerns BALB/c mice. Put plainly: Chronic OVA-induced AHR (PenH). It counts as in vivo. The settings on record: TAT as irrelevant peptide control. How it is done: BALB/c mice were treated with OVA to induce chronic AHR and administered a4-TAT-vFLIP (as autophagy inducer) and TAT (as irrelevant peptide, control). AHR was assessed by Pen H (enhanced pause).
Test [2] concerns BALB/c mice. The test is described as follows: Lung histology (hematoxylin and eosin), HDM model. It counts as in vivo. The following applies: HDM+vFLIP compared to HDM alone. An excerpt: (§1) Thereafter, lung sections were stained with hematoxylin and eosin (HE) from the different groups in the HDM and OVA models. Airway inflammation and remodeling were decreased in the HDM/OVA+vFLIP compared to OVA/HDM alone based on smooth muscle hyperplasia, epithelial cell proliferation, subepithelial fibrosis and basement membrane thickening.

For test [3], the system named is BALB/c mice. The test is described as follows: Lung histology (hematoxylin and eosin), OVA model. It counts as in vivo. The following applies: OVA+vFLIP compared to OVA alone.
Source text: as §1

The subject of test [4] is BALB/c mice. The test is described as follows: Acute OVA-induced AHR (PenH, methacholine challenge), a4-vFLIP peptide. Type of test: in vivo. The settings on record: acute OVA model, 300 μg i.p. days 11 to 13, compared to OVA+TAT pep, P<0.003. How it is done: Briefly on day 1, naïve BALB/c mice (N=5 per group) received an intraperitoneal (i.p.) injection with ovalbumin (OVA) ([…]) in Alum (2 mg). After resting for 10 days, mice were treated intranasally (i.n.) with OVA (50 μg) and i.p. with the autophagy inducer α4-TAT-vFLIP ([…]) on days 11 to 13. On day 14, the enhanced pause (PenH) variable was measured to determine airway hyperreactivity (AHR).
Briefly, administration of alpha4-TAT-vFLIP (a.k.a. a4-vFLIP) peptide restores lung function in an acute model of OVA induced asthma. Increasing doses of methacholine, a muscarinic receptor agonist to induce AHR, was administered to the different treatment groups of mice and the PenH was determined. […] Ctrl group (dark triangles) after methacholine challenge. […] Therefore, the autophagy peptide inducer a4-vFLIP was able to reduce AHR after OVA challenge.

The test system of test [5] is BALB/c mice. Put plainly: Acute HDM-induced AHR (PenH, methacholine challenge), a4-vFLIP peptide. It counts as in vivo. The following applies: acute HDM model, 300 μg i.p. days 13 to 15, compared to HDM+TAT pep, P<0.003. How it is done: FIG. 9D illustrates a protocol to induce acute AHR by HDM. On day 1, naïve BALB/c mice (N=5 per group) received an intranasal (i.n.) injection with house dust mite (HDM) ([…]). After resting for 6 days, mice were treated intranasally (i.n.) with HDM ([…]) from days 7 to 14 and i.p. with the autophagy inducer a4-TAT-vFLIP (300 μg) on days 13 to 15. On day 16, the enhanced pause (PenH) variable was measured to determine airway hyperreactivity (AHR).
Increasing doses of methacholine, a muscarinic receptor agonist to induce AHR, was administered to the different treatment groups of mice and the PenH was determined. […] Ctrl group (dark triangles) after methacholine challenge. […] Therefore, the autophagy peptide inducer was able to reduce AHR after HDM challenge.

In test [6] the test system is BALB/c mice. Put plainly: OVA-induced AHR in BALB/c mice treated with autophagy inducers or inhibitor (whole body plethysmography, PenH). Type of test: in vivo. The following applies: i.p., DCMI 1 mg/kg, tamoxifen 100 μM, clonidine 0.1 mg/kg, carbamazepine 20 mg/kg, compared to OVA controls. How it is done: FIGS. 3A to 3E illustrate altered development of AHR and lung inflammation in BALB/c mice treated with autophagy inducers and inhibitor. FIG. 3A is a schematic for the sensitization and challenge protocol with administration of autophagy inhibitors and inducers via i.p. injection. FIGS. 3B and C show AHR was determined by whole body plethysmography and is expressed as mean PenH in the presence or absence of (FIG. 3B) autophagy inhibitor desmethylclomipramine (“DCMI”) 1 mg/kg or (FIG. 3C) autophagy inducers tamoxifen 100 μM, clonidine 0.1 mg/kg or carbamazepine 20 mg/kg. FIGS. 3D and E are a quantitative determination of cellular infiltration into BAL was determined by cytospin preparation in the presence or absence of (FIG. 3D) autophagy inhibitor and (FIG. 3E) autophagy inducers. Representative data from two independent experiments with 3 mice per group, expressed as mean±SEM. PBS refer to naïve BALB/c animals. Figure legend: Total: Total of number of cells in the BAL, PMN: polymorphonuclear cells, EOS: Eosinophils, MACRO: Macrophages, Lymph: Lymphocytes
Autophagy inducers (Carbamazepin, Tamoxifen, and Clonidine) and inhibitors (DCMI) were administered on days 10 to 13 (FIG. 9A). […] This was the opposite when treated with the autophagy inducers (Carbamazepin, Tamoxifen, and Clonidine) (FIG. 9C). Therefore, autophagy is an important mediator in AHR.
There are many reported small molecule inducers and inhibitors of autophagy (Balgi et al. (2009) PLoS One 4:e7124; Mizushima et al. (2006) Autophagy 2:302-304; Vooijs et al. (2001) EMBO Rep 2:292-297; Fujita et al. (2008) Mol Biol Cell 19:2092-2100; Kuma et al. (2004) Nature 432:1032-1036; Inoue et al. (2011) Biochem Biophys Res Commun 405:13-18). In preliminary studies, Applicant has used a range of different inducers (tamoxifen (Akbari et al. (2001) Nat Immunol 2:725-731), clonidine (Mizushima et al. (2006) Autophagy 2:302-304) and carbamazepine (Renna et al. (2010) J Biol Chem 285:11061-11067)) and one inhibitor (desmethylclomipramine (“DCMI”) (Balgi et al. (2009) PLoS One 4:e7124)). A standard sensitization and challenge protocol was used for the induction of AHR in BALB/c (FIG. 3A). […] This is in agreement with Applicant's findings using the Atg5Δ animals that inhibition of autophagy has a deleterious effect on lung function. When autophagy is induced (with tamoxifen, clonidine or carbamazepine) AHR after sensitization and challenge with OVA is reduced compared to controls (FIG. 3C). […] When autophagy is inhibited total cell numbers in the BAL are increased (FIG. 3D) in contrast, in the presence of autophagy inducers total cell numbers and in particular eosinophils are reduced (FIG. 3E).

For test [7], the system named is moderate to severe patients with asthma. The following applies: clinical trial; cited from earlier work.
In test [8] the test system is BALB/c mice. The test is described as follows: Cellular infiltration into BAL by cytospin preparation, OVA model. The settings on record: OVA sensitized and challenged BALB/c, i.p. treatment. Type of test: in vivo. How it is done: FIGS. 3A to 3E illustrate altered development of AHR and lung inflammation in BALB/c mice treated with autophagy inducers and inhibitor. FIG. 3A is a schematic for the sensitization and challenge protocol with administration of autophagy inhibitors and inducers via i.p. injection. FIGS. 3B and C show AHR was determined by whole body plethysmography and is expressed as mean PenH in the presence or absence of (FIG. 3B) autophagy inhibitor desmethylclomipramine (“DCMI”) 1 mg/kg or (FIG. 3C) autophagy inducers tamoxifen 100 μM, clonidine 0.1 mg/kg or carbamazepine 20 mg/kg. FIGS. 3D and E are a quantitative determination of cellular infiltration into BAL was determined by cytospin preparation in the presence or absence of (FIG. 3D) autophagy inhibitor and (FIG. 3E) autophagy inducers. Representative data from two independent experiments with 3 mice per group, expressed as mean±SEM. PBS refer to naïve BALB/c animals. Figure legend: Total: Total of number of cells in the BAL, PMN: polymorphonuclear cells, EOS: Eosinophils, MACRO: Macrophages, Lymph: Lymphocytes […]

Turning to “RRRQRRKKRGY-G-LMNSFVCLIVSS (RRRQRRKKRGYGLMNSFVCLIVSS) [a4-vFLIP, autophagy peptide inducer, 24aa TAT-fused α4 vFLIP peptide]”, the “chronic AHR (PenH)” value in the test with BALB/c mice [1] is on record as “decreased levels of AHR”. The “Airway inflammation and remodeling (smooth muscle hyperplasia, epithelial cell proliferation, subepithelial fibrosis, basement membrane thickening)” value in the test on BALB/c mice [2] and in the test with BALB/c mice [3] was “decreased” throughout. Further, the “AHR (PenH) after methacholine challenge” value in the test on BALB/c mice [4] and with BALB/c mice [5] was “statistically significant reduction” each time.

On to `NC(=O)N1c2ccccc2C=Cc2ccccc21` [carbamazepine], for which the “AHR (mean PenH) after sensitization and challenge with OVA” value (from here on “AHR (mean PenH)”) in the test on BALB/c mice [6] is “reduced”; in the test on BALB/c mice [6] (listed as Carbamazepin), “opposite”. For the same compound, the “efficacy for the treatment of asthma” value in test [7] is “improve asthma; also recorded: high efficacy”.

For `CC/C(=C(\c1ccccc1)c1ccc(OCCN(C)C)cc1)c1ccccc1` [tamoxifen], the “AHR (mean PenH)” value with BALB/c mice [6] was “reduced”; in the test on BALB/c mice [6] (listed as Tamoxifen), “opposite”.

In the case of `Clc1cccc(Cl)c1N=C1NCCN1` [clonidine], the “AHR (mean PenH)” value is “reduced” with BALB/c mice [6] and “opposite” in the test with BALB/c mice [6] (listed as Clonidine).

For the compound `CNCCCN1c2ccccc2CCc2ccc(Cl)cc21` [DCMI, desmethylclomipramine], the “total cell numbers in the BAL” value in the test with BALB/c mice [8] is “increased”. For the same compound, the “AHR (mean PenH)” value in the test with BALB/c mice [6] was “greatly increased; also recorded: significant increase”.

(Values after patent US9023841B2, “Compositions and methods for the treatment of asthma and associated disorders” (University of Southern California, priority 2011, dated 2015).)
